Results: paper PMC11574108, “4-Furanylvinylquinoline derivative as a new scaffold for the design of oxidative stress initiator and glucose transporter inhibitor drugs” (Scientific Reports, 2024)

Columns and labels:
AsPC-1 = experiment: Monolayer antiproliferative MTS assay; assay type: cell-based, human; conditions: 2D monolayer; for IC50: MTS, 72-h incubation
Experimental: (§1) The cells were seeded in 96-well plates (Nunc) with 5,000 or 4,000 cells per well for the cancer cells and NHDF, respectively, and incubated under standard conditions at 37 °C overnight. The culture media were then changed for freshly prepared solutions of the tested compounds in various concentrations. After 72-h incubation the antiproliferative assay was carried out as follows: the solutions of the compounds were changed in each well to 100 µL DMEM without phenol red and 20 µL of CellTiter 96 AQueous One Solution-MTS (Promega). The plates were incubated for 1 h at 37 °C, and the absorbance was then measured at 490 nm using a multi-plate reader (Synergy 4, BioTek). The experiment for each sample was repeated at least three times. The results are presented as the half-maximal inhibitory concentration (IC50) values, which were estimated in comparison to untreated cells (control) and calculated using GraphPad Prism v.8.0 (USA).
(§2) However, the antiproliferative activity of derivative 13 with furan a ring was surprising. […] For this purpose, we selected two pancreatic cancer cell lines: AsPC-1, which is characterised by a deletion of the p53 protein[20] and PANC-1, which carries an R273H mutation. This mutation also occurred in the glioblastoma U-251 cell line[22],[23]. An additional non-adherent line that carries the TP53 mutation that results in the absence of p53 is the K562 leukemic cell line[24]. […] Moreover, 13 was selective toward […], as indicated by its SI values (3.35–9.41). Among all of the tested cell lines, the highest activity of the compound was found against the HCT 116 cells with the wild-type p53 protein (0.069 µM). […] The p53 protein also interacts with the metabolic pathways that are associated with glucose transport[25] as well as small molecules. In light of the above-mentioned facts, we also determined the cytotoxicity of the GLUT inhibitor BAY-876, which is based on a quinoline scaffold. […] Furthermore, BAY-876 was also toxic to normal cells.

PANC-1 = experiment: Monolayer antiproliferative MTS assay; assay type: cell-based, human; conditions: 2D monolayer; for IC50: MTS, 72-h incubation
Experimental: as §1, §2

CT-DNA = experiment: Intercalation, spectrophotometric study on CT-DNA; assay type: binding, calf; conditions: 18 µM CT-DNA, 1.5 h, 37 °C, absorption spectra
Experimental: Lyophilized calf-thymus DNA (CT-DNA; Sigma-Aldrich) was dissolved in 10 mM Tris-HCl (pH 7.9), mixed gently, and kept overnight at 4 °C. The purity of the CT-DNA solution was determined by measurement of the ratio of UV absorbance at 260 and 280 nm. […] The tested compound was dissolved in DMSO to give a concentration of 8.35 mM. This stock solution was used for preparing new solutions (25, 12.5, 6, and 3 µM) in 1 mL of 10 mM Tris-HCl (pH 7.9). Next, 18 µM CT-DNA was added to the prepared solutions, and the samples were incubated for 1.5 h at 37 °C with occasional vortexing. The measurements of the absorption spectra were performed using a Hitachi U-2900 spectrophotometer in the range of 200–500 nm. The obtained data were analysed using GraphPad Prism v.8.0 (USA).
To determine whether and to what extent the compound interacts with DNA, we also performed a spectrophotometric study on CT-DNA. […] (Fig. S2). Nevertheless, under the effect of stress-induced DNA damage in cells, […], which inhibited the CDK1 and cyclin B1 complex. This had the effect of arresting the cell cycle in the G2/M phase in an attempt to repair the DNA damages or induce apoptosis[29],[30]. Abnormal CDK1 activation is often thought to be connected with tumourigenesis. […]

GLUT-1 = experiment: qRT-PCR, GLUT-1 mRNA expression; assay type: cell-based, human; conditions: HCT 116 p53-/-, 24 and 48 h
Experimental: The cells were seeded in 35 mm Petri dishes at a density of 500,000 cells and incubated at 37 °C for 24 h. The total RNA was isolated after incubation with solutions of 13 (0.5 µM and 1.0 µM) for 24 h and 48 h, respectively. The isolation from the samples was carried out according to a TRIzol™ Reagent protocol (Thermo Fisher Scientific). Synthesis of cDNA was performed with 2 µg of total RNA using a GoScript™ Reverse Transcriptase kit (Promega) with Oligo(dT)23 Primers. Real-Time PCR was carried out using a CFX96 Touch™ Real-Time PCR Detection System (Bio-Rad) in 10 µL reaction volume. Each sample contained SsoAdvanced™ Universal SYBR Green Supermix (Bio Rad), a specific primer pair mix (0.5 µM each), and 1 µL of cDNA. […] The obtained data were analysed based on a comparison of the expression of the target genes and normalized to a reference gene (GAPDH) using the Livak-Schmittgen (2^−ΔΔCT) method. […]
To verify the effect of derivative 13 on glucose transporters at the mRNA level, the expression of the genes encoding the best-characterised glucose transporters in cells was quantified in real-time. In addition to GLUT-1, the effect of the tested derivative on changes in the expression of GLUT-3 and GLUT-4 was also evaluated (Fig. 8). […]

IC50 (AsPC-1): 123 ± 7 nM | IC50 (AsPC-1; Homo sapiens, ASPC1, 72 h): ≤ 200 nM | IC50 (PANC-1): 193 ± 8 nM | IC50 (PANC-1; Homo sapiens, PANC-1, 72 h): ≤ 200 nM
SMILES: O=[N+]([O-])c1ccc(/C=C/c2ccnc3ccccc23)o1 [Compound 13]
SI (selectivity index) AsPC-1 (AsPC-1; relative to NHDF): 5.28 | SI (selectivity index) PANC-1 (PANC-1; relative to NHDF): 3.36 | hypochromism (CT-DNA): 10.97% | GLUT-1 mRNA level vs control (GLUT-1): significant decrease
